Here are results for two compounds from paper PMC5602355, “Endogenous Isoquinoline Alkaloids Agonists of Acid-Sensing Ion Channel Type 3” (Frontiers in Molecular Neuroscience, 2017).

Each structure is given as a SMILES string. Where only a bound is given, the exact number is not on record here.

Series [1] in a line: Solubility in physiological solutions for electrophysiology. The format is physicochemical. The settings on record: in words; maximal concentration used 1 mM. On the procedure:
(§1) Consequently, a maximal concentration of 1 mM was used in experimentations. The maximal effect on hASIC3 reached about 60% of Imax.

The target of series [2] is T1, human ASIC3 (hASIC3) (Homo sapiens, UniProt Q9UHC3).
T1 construct: expressed in transfected cells; host or cells: Xenopus laevis oocytes (injected)
T1 sequence (Q9UHC3 1-531): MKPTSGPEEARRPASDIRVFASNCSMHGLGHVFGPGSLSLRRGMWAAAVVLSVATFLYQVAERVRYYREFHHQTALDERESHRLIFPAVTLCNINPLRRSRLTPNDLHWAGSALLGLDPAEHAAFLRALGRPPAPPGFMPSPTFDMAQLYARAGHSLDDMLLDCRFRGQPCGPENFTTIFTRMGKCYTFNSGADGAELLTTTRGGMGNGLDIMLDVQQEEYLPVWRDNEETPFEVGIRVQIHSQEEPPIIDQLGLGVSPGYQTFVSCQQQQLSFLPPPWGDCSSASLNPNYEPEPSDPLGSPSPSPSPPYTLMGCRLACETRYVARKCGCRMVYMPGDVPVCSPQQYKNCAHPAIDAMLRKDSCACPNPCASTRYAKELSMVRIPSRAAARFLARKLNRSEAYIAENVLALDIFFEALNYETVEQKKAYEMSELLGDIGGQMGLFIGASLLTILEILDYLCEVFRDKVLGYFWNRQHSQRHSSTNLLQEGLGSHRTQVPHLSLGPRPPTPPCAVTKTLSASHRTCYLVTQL
Kind of series: Activation of hASIC3 channels expressed in Xenopus laevis oocytes, whole-cell two electrode voltage clamp. Type of series: cell-based. The settings on record: for Maximal activating effect reached, % of Imax: Imax predicted by logistic fit.
Description: (§2) The ability of EIAs to activate ASIC3 channels was studied in whole-cell configuration on oocytes of Xenopus laevis. THP and reticuline caused slowly activated sustained inward currents both in human (Figures 1A,B) and rat (Figures 1C,D) homomeric ASIC3 channels at resting pH 7.4 and above.
(§3) In the case of human ASIC3 channels (hASIC3), the activating effect was greater and even exceeded the response of the cell to pH drop of 7.8–5.5 in control experiments (Figure 1A). The maximal effect reached about 30% of Imax (a maximal amplitude predicted by the logistic equation fitting of dose-dependence of EIA-induced current). […] THP shown the same potency on the rASIC3 channel (rASIC3; Figure 1C). The activating effect under the same conditions reached about 30% of Imax.
as §1
(§4) Oocytes expressed hASIC3 and rASIC3 homomeric channels were prepared as described (Dubinnyi et al., [2012]). After injection, the oocytes were kept for 2–3 days at 19°C and then up to 7 days at 15°C in an ND-96 medium containing (in mM): 96 NaCl, 2 KCl, 1.8 CaCl2, 1 MgCl2 and 10 HEPES titrated to pH 7.4 with NaOH supplemented with gentamycin (50 μg/ml). Two electrode voltage clamp recordings were made using a GeneClamp500 amplifier (Axon Instruments), and data were filtered at 20 Hz and digitized at 100 Hz by an AD converter L780 (L-Card, Moscow, Russia) using homemade software. A computer-controlled valve system for a fast solution switch was used. Microelectrodes were filled with 3 M KCl solutions. All solutions of the testing compounds were supplemented with 0.1% BSA. To induce currents, we employed ND-96-modified solutions in which 10 mM of HEPES was substituted for 5 mM MES pH 5.5. A set of external ND-96 solutions with pH 6.8–7.0 (buffered with 10 mM of MOPS), pH 7.1–8.0 (buffered with 10 mM of HEPES) was prepared.
The analysis of electrophysiological data was performed using the program OriginPro 8.6. The curve-fitting analysis was carried out with the following four-parameter logistic equation: F(x) = A/(1 + (x/x0)n), where x is the concentration of the ligand, F(x) is the response value at a given ligand concentration, A is the response value at maximal activation (% of control), x0 is the EC50 value and n is the Hill coefficient (slope factor). All data are presented as the mean ± SE.

Series [3] deals with T2, rat ASIC3 (rASIC3) (Rattus norvegicus, UniProt O35240).
T2 construct: expressed in transfected cells; host or cells: Xenopus laevis oocytes (injected)
T2 sequence (O35240 1-533): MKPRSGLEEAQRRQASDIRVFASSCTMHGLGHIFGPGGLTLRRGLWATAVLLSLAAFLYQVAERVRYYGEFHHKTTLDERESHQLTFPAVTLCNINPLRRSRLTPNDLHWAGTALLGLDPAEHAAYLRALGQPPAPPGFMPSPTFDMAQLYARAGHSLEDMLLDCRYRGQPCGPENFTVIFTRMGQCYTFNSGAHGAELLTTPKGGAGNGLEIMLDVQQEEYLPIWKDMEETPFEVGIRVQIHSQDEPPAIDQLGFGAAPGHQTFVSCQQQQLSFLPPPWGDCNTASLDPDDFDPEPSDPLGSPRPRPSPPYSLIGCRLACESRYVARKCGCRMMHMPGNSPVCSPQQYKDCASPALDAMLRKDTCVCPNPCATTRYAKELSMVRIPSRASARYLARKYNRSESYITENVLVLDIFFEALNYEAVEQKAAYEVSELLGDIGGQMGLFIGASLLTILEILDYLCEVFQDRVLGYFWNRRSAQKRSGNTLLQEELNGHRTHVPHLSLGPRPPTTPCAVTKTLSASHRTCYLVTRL
Briefly: Recovery of the transient current of rASIC3 from steady-state desensitization, oocytes. The format is cell-based. The note with it: rASIC3, conditioning pH 6.8, pH 5.5 stimulus, n = 4-5. As for the experimental part: as §4
(§5) The analysis of electrophysiological data was performed using the program OriginPro 8.6. […]

Series [4] concerns the target T2, rat ASIC3 (rASIC3). Kind of series: Activation of rASIC3 channels expressed in Xenopus laevis oocytes, whole-cell two electrode voltage clamp. Type of series: cell-based.
Description: as §2, §3, §4, §5
Background: Two-electrode voltage clamp holds a large cell at a set potential and records current.

Series [5] has as its target T1, human ASIC3 (hASIC3). Kind of series: Recovery of the transient current of hASIC3 from steady-state desensitization, oocytes. Type of series: cell-based. The settings on record: hASIC3, conditioning pH 7.3, pH 5.5 stimulus, n = 4-5. As for the experimental part:
EIAs cause both the channel activation and transient component of hASIC3 current restoration from a desensitization at pH 7.3 (Figures 2A,D). For THP, the restoration effect was more pronounced. This effect was dose-dependent and reached a maximal possible value at the highest applied concentration of THP (10 mM). […] For this reason, the maximal amplitude of the transient current recovered by THP from desensitization (Imax) was predicted by the fitting of the dose dependence by a logistic equation for each experimental cell.
as §4, with “To induce currents, we employed ND-96-modified solutions in which 10 mM of HEPES was substituted for 5 mM MES pH 5.5. A set of external ND-96 solutions with pH 6.8–7.0 (buffered with 10 mM of MOPS), pH 7.1–8.0 (buffered with 10 mM of HEPES) was prepared.” left out

Setting [6] is: hASIC3, holding pH 7.8, logistic fit, n = 5.

Consider `COc1ccc(CC2c3cc(O)c(OC)cc3CCN2C)cc1O` (stereo not drawn) [Reticuline, reticuline], for which the “Solubility in physiological solutions for electrophysiology” value in series [1] is given as “does not have a high solubility”. Besides, the “Hill coefficient (nH) of channel activation” value on human ASIC3 (hASIC3) [2] (setting [6]) came out at 0.85 ± 0.05. Further, the EC50 (commonly the concentration giving half of the maximal effect) at human ASIC3 (hASIC3) [2] (hASIC3, holding pH 7.8, logistic fit, n = 5, read-out: EC50 of channel activation (EIA-induced sustained current)) amounted to 0.56 ± 0.04 mM. In addition, the “Maximal activating effect reached, % of Imax” value on human ASIC3 (hASIC3) [2] (hASIC3, maximal concentration 1 mM) is given as “about 60 % of Imax”.
Consider `Oc1ccc(CC2NCCc3cc(O)c(O)cc32)cc1O` (stereo not drawn) [THP, tetrahydropapaveroline], for which the EC50 on rat ASIC3 (rASIC3) [3] was 4.6 ± 0.1 mM; at rat ASIC3 (rASIC3) [4] (rASIC3, holding pH 7.8, logistic fit, n = 5, read-out: EC50 of channel activation (EIA-induced sustained current)) it was above 10 mM; on human ASIC3 (hASIC3) [5] it was 2.3 ± 0.04 mM; on human ASIC3 (hASIC3) [2], above 10 mM. Besides, the “Hill coefficient (nH) of channel activation” value on rat ASIC3 (rASIC3) [4] (rASIC3, holding pH 7.8, logistic fit, n = 5) amounted to 0.95 ± 0.04; at human ASIC3 (hASIC3) [2] (setting [6]), 0.99 ± 0.05. Further, the “Maximal activating effect reached, % of Imax” value is given as “about 30 % of Imax” on rat ASIC3 (rASIC3) [4] (rASIC3, pH 7.8, up to 10 mM, Imax predicted by logistic fit) and “about 30 % of Imax” on human ASIC3 (hASIC3) [2] (hASIC3, pH 7.8, highest accessible concentration 10 mM).
